Experimental data from US20210060044A1, “METHODS FOR TREATING BLADDER CANCER BY ACTIVATION OF HEDGEHOG SIGNALING USING A M[…]” (POSTECH Research and Business Development Foundation, priority 2019, published 2021).
Read-outs that look alike come from different tables or passages of the source.

Columns and labels:
[1] = test system: CpG shore upstream of the CpG island of the Shh promoter region; settings: 1 mg per kg every other day for 2 weeks; vehicle control 62%
Experimental: (§6) The mice were administered 8 mg of tamoxifen (TM; Sigma) per 30 g of body weight by oral gavage for three consecutive days. Male mice aged 8 to 10 weeks were used. […] In each experiment, the mice were randomly selected for a drug/TM or control-treated group. The experiments involving mice were performed under isoflurane anesthesia.
The DNA methylation status of mouse and human Shh was confirmed using genomic DNA bisulfite sequencing. For bisulfite conversion, 1 μg of genomic DNA was converted using a MethylEdge Bisulfite Conversion System (Promega) according to the manufacturer's instructions. The genomic sequences of the regulatory regions of mouse Shh and human SHH were obtained from the NCBI nucleotide database (Mus musculus: NC_000071.6, Homo sapiens: NG_007504.2), and the CpG island (island) and CpG shores in the regulatory region were identified using Methprimer 2.0 (Li and Dahiya, 2002) (RRID: SCR_010269). The 2kb regions upstream and downstream of the CpG island were referred to as a “CpG upshore” and a “CpG downshore,” respectively. […]
(§7) The sequencing data was assembled using SnapGene software (https://snapgene.com/, RRID: SCR_015053) and the MUSCLE: multiple sequence alignment tool (haps://www.ebi.ac.uk/Tools/msa/muscle/ RRID: SCR_011812). […] The methylated CpG sites were counted and distinguished from unmethylated CpG sites.

[2] = test system: BBN-induced bladder tumor cells
Experimental: as §6
Bladder tumors were dissociated into single cells as described above. The cells were resuspended in 80 ml DMEM containing 50% Matrigel (BD Bioscience), and then submucosally injected into the anterior aspect of the bladder dome using a 29-gauge insulin syringe.
(§8) Tumor specimens were fixed in 10% neutral-buffered formalin for 12 hours, embedded in paraffin, and then sectioned into 4-um thick sections using a microtome. The slides were stained with hematoxylin and counter-stained with eosin for histological analysis. For immunostaining, tumor samples were embedded in an OCT compound (Tissue-Tek) and sectioned into 10-um-thick sections with a cryostat (Leica).
To evaluate the effect of the inhibition of DNA methyltransferase (DNMT) on the growth of bladder cancer, recently established transplantation models were used, and these models allow the proliferation of tumor cells transplanted in a microenvironment in vivo by injecting bladder cancer cells into the wall of the bladder dome.

J82 cells = settings: J82 orthotopic xenograft, treated one month; vehicle: full-fledged muscle-invasive carcinoma
Experimental: (§1) To investigate the functional role of SHH expression in the growth of human bladder tumors and the effects of the Hh/BMP signaling feedback between tumors and the stroma on the subtype conversion of human muscle-invasive urothelial carcinoma, xenografts in which J82 cells were orthotopically injected into immunocompromised mice (NOD/SCID/IL2Rgnull) (14 mice) were treated with 5′-azacitidine for one month, and orthotopic xenografts in the mice treated with the vehicle control (7 mice) or 5′-azacitidine (7 mice) were subjected to H&E staining.

[3] = test system: luminal markers (FOXA1 and GATA3) and basal markers (CDH3 and KRT6A); settings: J82 tumor xenografts
Experimental: (§2) Subsequently, the RNA samples were dissolved in RNase-free water, and their concentration and purity were measured with a spectrophotometer. The TAE/formamide electrophoresis method (Masek et al., 2005) was used for RNA quality analysis. For quantitative RT-PCR of mRNA transcripts, first-strand cDNA was synthesized using a high-capacity cDNA reverse transcriptase kit (Applied Biosystems) containing oligo dT. Quantitative RT-PCR was performed using SYBR Green Supermix (Applied Biosystems) and a one-step cycler (Applied Biosystems), and gene expression was normalized to the housekeeping gene HPRT1.
as §1

Shh gene [4] = settings: tumor organoids, 1 μM for four consecutive days
Experimental: as §2

[5] = test system: CpG shore upstream of the CpG island of the Shh promoter region; settings: tumor organoids, 1 μM for four consecutive days; vehicle control 73%
Experimental: The DNA methylation status of mouse and human Shh was confirmed using genomic DNA bisulfite sequencing. For bisulfite conversion, 1 μg of genomic DNA was converted using a MethylEdge Bisulfite Conversion System (Promega) according to the manufacturer's instructions. The genomic sequences of the regulatory regions of mouse Shh and human SHH were obtained from the NCBI nucleotide database (Mus musculus: NC_000071.6, Homo sapiens: NG_007504.2), and the CpG island (island) and CpG shores in the regulatory region were identified using Methprimer 2.0 (Li and Dahiya, 2002) (RRID: SCR_010269). […]
as §7
BBN-induced bladder tumors were minced, and then incubated in DMEM (Gibco) containing collagenase I and II (20 mg/ml each) and thermolysin (250 KU/ml) at 37° C. for 2 hours, followed by 5-minute trituration every 30 minutes. […] After lysis of red blood cells in ACK lysis buffer (Gibco), the cells were washed with DMEM containing 10% fetal bovine serum (Millipore) and counted using a hemocytometer (Sigma). […]

Ck18 = settings: tumor allografts, nude mice
Excerpt: (§3) To evaluate the effect of DNA methyltransferase inhibition on the growth of bladder cancer under immunocompromised conditions, nude mice (14 mice) orthotopically injected with BBN-induced bladder tumor cells were divided into a vehicle control (7 mice) and a 5′-azacitidine-treated group (7 mice), and then treated with a vehicle and 5′-azacitidine for 2 weeks, respectively. In addition, allograft sections of the vehicle control or 5′-azacitidine-treated mice were subjected to H&E staining, and the experimental scheme is shown in FIG. 4A.

[6] = test system: BBN-induced bladder tumor cells; settings: nude mice, treated 2 weeks
Excerpt: as §3

[7] = test system: luminal markers (Upk1a, Upk1b, Upk2, Upk3a, Upk3b, Krt20, Krt18); settings: tumor allografts; normalized to Krt5
Experimental: (§4) Human or mouse bladder samples were snap-frozen in liquid nitrogen, homogenized with a mortar and a pestle, and RNA was extracted using an RNeasy Plus Mini Kit (Qiagen).
as §2, §3

[8] = test system: BBN-induced muscle-invasive urothelial carcinoma; settings: Col1a2CreER;Smoflox/flox or Col1a2CreER;Gli2flox/flox mice, BBN 6 months
Experimental: (§9) For a gene deletion experiment, Col1a2^CreER (RRID: IMSR_JAX: 029235) mice were mated with the Smo^flox/flox (RRID: IMSR_JAX: 007926) or Gli2^flox/flox (RRID: IMSR_JAX: 004526) strains, thereby obtaining Col1a2^CreER; Smo^flox/flox or Col1a2^CreER;Gli2^flox/flox mice.
The mice were administered 8 mg of tamoxifen (TM; Sigma) per 30 g of body weight by oral gavage for three consecutive days. Male mice aged 8 to 10 weeks were used. […] In each experiment, the mice were randomly selected for a drug/TM or control-treated group. The experiments involving mice were performed under isoflurane anesthesia. All procedures were performed according to a protocol approved by the Institutional Animal Care and Use Committee at POSTECH (IACUC number: POSTECH-2017-0094).
(§10) 0.1% N-butyl-N-4-hydroxybutyl nitrosamine (BBN, TCI) was dissolved in drinking water, and the BBN-containing water was placed in a dark bottle, and provided ad libitum to mice for 4 to 6 months. The BBN-containing water was replaced twice a week. Bladders were collected and analyzed 4 to 6 months after BBN administration.

[9] = test system: BBN-induced invasive carcinoma; settings: BBN 4 months, then treatment 2 months with continued BBN; found in vehicle control
Experimental: as §6, §10, §8

BBN-induced tumors = settings: TM three days, transplantation, treatment 1.5 months
Experimental: as §9
The mice were administered 8 mg of tamoxifen (TM; Sigma) per 30 g of body weight by oral gavage for three consecutive days. Male mice aged 8 to 10 weeks were used. […] The dosing duration is described in the brief description of the drawings. In each experiment, the mice were randomly selected for a drug/TM or control-treated group. The experiments involving mice were performed under isoflurane anesthesia.
Bladder tumors were dissociated into single cells as described above. The cells were resuspended in 80 ml DMEM containing 50% Matrigel (BD Bioscience), and then submucosally injected into the anterior aspect of the bladder dome using a 29-gauge insulin syringe. An abdominal incision and skin were closed with a 4-0 nylon suture, and the surgical site was disinfected with alcohol. Bladder tumor organoids were selected, and resuspended in a 50% organoid medium and 50%

Shh gene [10] = settings: orthotopic BBN-induced mouse tumor, 1 mg per kg every other day for 2 weeks
Experimental: as §4, §2

[11] = test system: luminal and basal signatures; settings: tumor allografts, RNA-Seq
Experimental: Total RNA was extracted with a TRIzol reagent (Thermo Fisher) according to the manufacturer's instructions. RNA-seq libraries were constructed using the TruSeq sample prep kit V2 (Illumina). […] The RNA-seq libraries were sequenced using a NextSeq platform with 75-bp single-end reads.
Differentially expressed genes were analyzed using Cufflinks tools (Trapnell et al., 2012). From all annotated genes, genes were removed when the rpkm average of all sequenced samples is less than 1.0, such that the depth to which the genes are assigned may be low. GSEA was performed according to the instructions (RRID: SCR_003199). To generate a customized gene set for a luminal marker and a basal marker, a representative gene for each signature was obtained from a previous study (Damrauer et al., 2014). The RNA-seq data set used herein was deposited in NCBI GEO (Accession No.: GSE129441).
In addition, using standard luminal and basal signatures obtained from previous research, GSEA of tumor allografts treated with the vehicle control and 5′-azacitidine from RNA-Seq data was performed.

J82 = test system: J82
Experimental: (§5) Frozen human bladder tissue samples were obtained from the tissue bank of Seoul National University Hospital. For fresh bladder tumor samples, 0.5 to 1-cm^3 bladder tissue specimens were obtained from patients undergoing cystectomy or TURBT according to a protocol approved by the SNUH Institutional Review Board (IRB No.: 1607-135-777). Informed consent to patient information provision and publishing was obtained from the patients. The cancer tissues were evaluated before transport to POSTECH for additional analysis. For experiments for bladder cancer cell lines, J82 (RRID: CVCL_0359), T24 (RRID: CVCL_0554) and TCC (RRID: CVCL_1738) were used. All cell lines were authenticated by a STR profiling method, and tested negative for mycoplasma contamination.
as §2

TCC-SUP = test system: TCC-SUP
Experimental: as §5, §2

T24 = test system: T24
Experimental: as §5, §2

SMILES: Nc1ncn([C@@H]2O[C@H](CO)[C@@H](O)[C@H]2O)c(=O)n1 [5′-azacitidine]
- methylation level in the CpG shore upstream of the CpG island of the Shh promoter region [1]: 36%
- growth of bladder tumors ([2]; immunocompetent wild-type mice): completely inhibits
- invasive carcinoma (H&E) ([2]; treated for 1.5 months, appeared in vehicle control): no invasive carcinoma appeared
- cancer lesions in the bladder (H&E) (J82 cells): much smaller cancer lesions
- basal marker CDH3 expression, decrease compared with the vehicle [3]: 6 fold
- basal marker KRT6A expression, decrease compared with the vehicle [3]: 9 fold
- luminal marker FOXA1 expression, increase compared with the vehicle [3]: 1.8 fold
- luminal marker GATA3 expression, increase compared with the vehicle [3]: 1.8 fold
- Shh gene expression level, increase compared to the vehicle control (Shh gene [4]): 9 fold
- methylation level in the CpG shore upstream of the CpG island of the Shh promoter region [5]: 43%
- expression of luminal subtype marker Ck18 (immunostaining) (Ck18): increased
- tumor lesions compared with untreated group (H&E) [6]: smaller tumor lesions
- Krt18 expression, increase compared with the vehicle control [7]: 2 fold
- Krt20 expression, increase compared with the vehicle control [7]: 1.5 fold
- Upk1a expression, increase compared with the vehicle control [7]: 3 fold
- Upk1b expression, increase compared with the vehicle control [7]: 2 fold
- Upk2 expression, increase compared with the vehicle control [7]: 2 fold
- Upk3a expression, increase compared with the vehicle control [7]: 2.5 fold
- Upk3b expression, increase compared with the vehicle control [7]: 2 fold
- anticancer initiation effect in TM-treated group (stromal Hh response removed) [8]: reversed
- invasive carcinoma (H&E) [9]: not found
- anticancer propagation effect in strains with genetically inhibited stromal Hh signaling pathway (BBN-induced tumors): disappeared
- Shh gene expression level, increase compared to the vehicle control (Shh gene [10]): 11 fold
- basal marker expression (GSEA) [11]: relatively low level
- luminal signature (GSEA) [11]: strong luminal signature
- SHH expression, increase compared with untreated control (J82): 6 fold
- SHH expression, increase compared with untreated control (TCC-SUP): 3 fold
- SHH expression, increase compared with untreated control (T24): 7 fold
